From ChEMBL document CHEMBL5233258, “Recent developments of gallic acid derivatives and their hybrids in medicinal chemistry: A review” (Eur J Med Chem, 2020)
In brackets after ≈: the same amount, converted by molar mass.

Legend:
[1] = system: MCF7; assay: Anticancer activity against human MCF7 cells assessed as inhibition of cell growth incubated for 24 hrs by MTT assay; type: functional, cell-based; settings: MCF7, 24 h
[2] = system: Mycobacterium tuberculosis; assay: Antitubercular activity against Mycobacterium tuberculosis H37 Rv ATCC 27294 incubated for 7 days by Alamar blue assay; type: functional; settings: H37 Rv ATCC 27294, 168 h, time 7 day
[3] = Inhibition of recombinant HIV-1 integrase using V1/V2 as substrate assessed as 3'-end processing of the substrate incubated for 1 hrs; parameters: species or system Human immunodeficiency virus 1
[4] = system: MCF7; assay: Cytotoxicity against human MCF7 cells assessed as reduction in cell viability incubated for 72 hrs by MTT assay; type: functional, cell-based; settings: MCF7, 72 h
[5] = Antioxidant activity assessed as DPPH radical scavenging activity measured after 30 mins by spectrophotometric analysis; type: functional
[6] = system: HCT-116; assay: Cytotoxicity against human HCT-116 cells assessed as reduction in cell viability incubated for 72 hrs by MTT assay; type: functional, cell-based; settings: HCT-116, 72 h
[7] = system: HepG2; assay: Cytotoxicity against human HepG2 cells by MTT assay; type: functional, cell-based
[8] = system: HCT-116; assay: Cytotoxicity against human HCT-116 cells by MTT assay; type: functional, cell-based
[9] = Antioxidant activity assessed as DPPH radical scavenging activity measured after 30 mins; type: functional
[10] = Inhibition of recombinant HIV-1 integrase using 32-P labeled dBY-1 as substrate assessed as disintegration of substrate incubated for 1 hrs; parameters: species or system Human immunodeficiency virus 1
[11] = Antioxidant activity assessed as DPPH radical scavenging activity; type: functional
[12] = Antioxidant activity assessed as ABTS radical scavenging activity; type: functional
[13] = species: Rattus norvegicus; assay: Inhibition of tert-butylhydroperoxide induced lipid peroxidation in rat liver microsomes; type: functional, Microsome
[14] = system: Pseudomonas aeruginosa; assay: Antibacterial activity against Pseudomonas aeruginosa assessed as zone of inhibition incubated for 24 hrs by agar diffusion method; type: functional
[15] = system: Escherichia coli; assay: Antibacterial activity against Escherichia coli assessed as zone of inhibition incubated for 24 hrs by agar diffusion method; type: functional
[16] = system: Bacillus subtilis; assay: Bactericidal activity against Bacillus subtilis ATCC 6633 by Mueller-Hinton broth method; type: functional
[17] = system: Bacillus subtilis; assay: Antibacterial activity against Bacillus subtilis ATCC 6633 by Mueller-Hinton broth method; type: functional

## COc1ccc(/C=C\c2cc(OC)c(OC)c(OC)c2)cc1O [COMBRETASTATIN A4]
[1]
  IC50: 0.01 µM

## O=C(NN1C(=O)CSC1c1ccccc1Cl)c1cc(O)c(O)c(O)c1 (configuration not stated)
[2]
  MIC: 0.79 µg/mL (≈ 2.07 µM)

## O=C(O[C@@H]1C[C@H](O)C[C@@H](O)[C@H]1O)c1cc(O)c(O)c(O)c1
[3]
  IC50: 0.71 µM

## O=C(N/N=C/c1c[nH]c2ccc(Br)cc12)c1cc(O)c(O)c(O)c1
[4]
  IC50: 6.7 µM
[5]
  IC50: 172 µM
[6]
  IC50: 13.3 µM

## COc1ccc(C2=NN(C(=O)c3cc(O)c(O)c(O)c3)C(c3ccc(C#N)cc3)C2)cc1OC (configuration not stated)
[7]
  IC50: 15.2 µg/mL (≈ 33.1 µM)
[8]
  IC50: 31.5 µg/mL (≈ 68.6 µM)

## C/C(=N/NC(=O)c1cc(O)c(O)c(O)c1)c1ccccn1
[9]
  IC50: 1.14 µg/mL (≈ 3.97 µM)

## O=C(N/N=C/c1c[nH]c2ccc(Cl)cc12)c1cc(O)c(O)c(O)c1
[4]
  IC50: 6.7 µM
[5]
  IC50: 189 µM
[6]
  IC50: 19.2 µM

## Cc1nnc(C(=O)NC(C)(C)c2nc(C(=O)NCc3ccc(F)cc3)c(O)c(=O)n2C)o1 [RALTEGRAVIR]
[10]
  IC50: 35.2 µM

## CSc1nnc(C(=O)c2cc(O)c(O)c(O)c2)o1
[11]
  IC50: 14.6 µM
[12]
  IC50: 24.4 µM

## O=c1c(O[C@@H]2O[C@H](CO)[C@@H](O)[C@H](O)[C@H]2O)c(-c2ccc(O)c(O)c2)oc2cc(O)cc(O)c12 [ISOQUERCETIN]
[13]
  IC50: 972 µM

## COc1cc2c(cc1Cc1cccc(Cl)c1F)c(=O)c(C(=O)O)cn2[C@H](CO)C(C)C [ELVITEGRAVIR]
[10]
  IC50: > 100 µM

## Oc1cc(-c2nnc(CC(O)(Cc3nnc(-c4cc(O)c(O)c(O)c4)o3)c3nnco3)o2)cc(O)c1O
[11]
  IC50: 16 µM
[12]
  IC50: 125 µM

## COc1cc(C(=O)N/N=C/c2c(CO)cnc(C)c2O)cc(OC)c1OC
[14]
  inhibition zone (IZ): 17 mm
[15]
  inhibition zone (IZ): 17 mm

## CC1(C)S[C@@H]2[C@H](NC(=O)[C@H](N)c3ccccc3)C(=O)N2[C@H]1C(=O)O [AMPICILLIN]
[14]
  inhibition zone (IZ): 15 mm
[15]
  inhibition zone (IZ): 15 mm

## O=C(O)c1cc(OCCNC(=O)c2cc(OCCNC(=O)c3cc(OCNC(=O)c4cc(O)c(O)c(O)c4)cc(OCNC(=O)c4cc(O)c(O)c(O)c4)c3)cc(OCCNC(=O)c3cc(OCNC(=O)c4cc(O)c(O)c(O)c4)cc(OCNC(=O)c4cc(O)c(O)c(O)c4)c3)c2)cc(OCCNC(=O)c2ccc(OCCNC(=O)c3cc(OCNC(=O)c4cc(O)c(O)c(O)c4)cc(OCNC(=O)c4cc(O)c(O)c(O)c4)c3)c(OCCNC(=O)c3cc(OCNC(=O)c4cc(O)c(O)c(O)c4)cc(OCNC(=O)c4cc(O)c(O)c(O)c4)c3)c2)c1
[11]
  ED50: 4.7 µM

## Cc1c(C)c2c(c(C)c1O)CCC(C)(C(=O)O)O2 (configuration not stated) [TROLOX]
[11]
  IC50: 30.6 µM

## COc1cc([C@@H]2c3cc4c(cc3[C@H](O)[C@H]3COC(=O)[C@H]23)OCO4)cc(OC)c1OC [PODOFILOX]
[1]
  IC50: 65 µM

## COc1ccc(O)c(/C(C)=N\NC(=O)c2cc(O)c(O)c(O)c2)c1
[9]
  IC50: 1.14 µg/mL (≈ 3.43 µM)

## C/C(=N/NC(=O)c1cc(O)c(O)c(O)c1)c1cc(Br)ccc1O
[9]
  IC50: 1.14 µg/mL (≈ 2.99 µM)

## CC(=O)O[C@H]1C(=O)[C@@]2(C)[C@H]([C@H](OC(=O)c3ccccc3)[C@]3(O)C[C@H](OC(=O)[C@H](O)[C@@H](NC(=O)c4ccccc4)c4ccccc4)C(C)=C1C3(C)C)[C@]1(OC(C)=O)CO[C@@H]1C[C@@H]2O [PACLITAXEL]
[1]
  IC50: 0.0025 µM
[7]
  IC50: 0.66 µg/mL (≈ 0.773 µM)
[8]
  IC50: 0.915 µg/mL (≈ 1.07 µM)

## O=C(O[C@@H]1C[C@@H](O)[C@@H](O)[C@H](OC(=O)c2cc(O)c(O)c(O)c2)C1)c1cc(O)c(O)c(O)c1
[3]
  IC50: 0.33 µM

## CCCCCCCCCCCC[N+](C)(C)CCOCCO
[5]
  IC50: 4820 µM
[16]
  MBC: 2400 µM
[17]
  MIC: 2400 µM

## O=C(OC[C@H]1O[C@@H](Oc2c(-c3ccc(O)c(O)c3)oc3cc(O)cc(O)c3c2=O)[C@H](O)[C@@H](O)[C@@H]1O)c1cc(O)c(O)c(O)c1
[13]
  IC50: 6.64 µM

## CC/C(=C(\c1ccccc1)c1ccc(OCCN(C)C)cc1)c1ccccc1 [TAMOXIFEN]
[1]
  IC50: 9 µM
